Source: PMC5636972 (Cell Death & Disease, 2017)

Assays:
[1] = tested on: I-Trp-induced apoptosis; test: Reversal of I-Trp-induced apoptosis by pretreatment with inhibitors (sub-G0 flow cytometry); assay type: cell-based
Protocol: Figure 4 Effect of I-Trp on the levels of intracellular Ca^2+. (a) I-Trp induces intracellular Ca^2+ release in a concentration-dependent manner. Cells were pretreated with BAPTA/AM (negative control) for 1 h, with MCN-A-343 (positive control) or different concentrations of I-Trp and incubated with Fluo-4 for 40 min. After incubation, the fluorescence signal was immediately measured using a fluorescence microplate reader by excitation at 509 nm and emission at 516 nm. (b) Cells were pre-incubated with BAPTA/AM (1–20 μM) for 1 h prior to treatment with EC50 concentrations of I-Trp for 72 h. Cell apoptosis was assessed via PI-based flow cytometric analysis. Data are expressed as mean±S.D. ***P<0.001, significant difference as compared to control. ^#P<0.05, ^##P<0.01 and ^###P<0.001 significant difference as compared to I-Trp alone
Next, we used ERK1/2 inhibitor U0126,[33], [34] JNK inhibitor SP600125,[35], [36] and p38 inhibitor SB203580[37] to confirm the involvement of MAPKs in I-Trp-induced apoptosis. We pretreated the cancer cell lines with 0.5–10 μM U0126, 1–10 μM SP600125, or 1–10 μM SB203580 for 1 h and subsequently treated them with I-Trp to detect the sub-G0 cell accumulation by flow cytometry.
(§1) Cells (3 × 10^5) were fixed in 70% ice-cold EtOH for 30 min at RT. Cells were washed with PBS once and then incubated with propidium iodide (PI) staining solution (PBS containing 0.1 % BSA, 0.1% RNase A, and […] PI) for 30 min at RT in the dark. After the incubation, the cells were analyzed by flow cytometry to assess their DNA content.

[2] = tested on: Colo205 cells; test: MTT cell viability assay, Colo205; assay type: cell-based
Text: (§2) To evaluate the potency of I-Trp in killing these cancer cell lines, we performed MTT assay to determine the cell viability of target cells. […] The cancer cells with higher expression levels of CCT-β were indeed more sensitive to I-Trp.

[3] = tested on: MCF-10A cells; test: MTT cell viability assay, non-tumorigenic MCF-10A; assay type: cell-based; conditions: for EC50: MTT, 72 h, normal cells
Text: as §2

[4] = tested on: HCT116 cells; test: MTT cell viability assay, HCT116; assay type: cell-based
Text: as §2

[5] = tested on: MKN-45 cells; test: MTT cell viability assay, MKN-45; assay type: cell-based
Text: as §2

[6] = tested on: MDA-MB-231 cells; test: MTT cell viability assay, MDA-MB-231; assay type: cell-based; conditions: for EC50: MTT, 72 h; for killing these cancer cells (in words): MDA-MB-231, MKN-45, HCT116, Colo205, Table 1
Text: as §2

[7] = tested on: microtubules; parameters: method as in PMID 19690144; conditions: cited from earlier work
[8] = tested on: MDA-MB-231, MKN-45, HCT116, and Colo205 cells; test: Long-term colony formation assay; assay type: cell-based; conditions: 0.31 to 2.5 μM, 7 days
Text: Next, we investigated the long-term effect of I-Trp on proliferation of the target cells using the colony formation assay.

[9] = tested on: CCT-β and β-tubulin mRNA; test: Real time qPCR for CCT-β and β-tubulin mRNA; assay type: cell-based; conditions: HCT116, MKN-45, MDA-MB-231, Colo205
Text: Mean values ± S.D. from three independent samples are shown. The RT-PCR experiments reveal that the mRNA levels of CCT-β and β-tubulin were not changed after I-Trp treatment in the tested cancer cells.

[10] = tested on: proteasome activity; test: Proteasome activity assay in cell lysates; assay type: cell-based
Protocol: After being treated with I-Trp for designated time periods, cells were collected and resuspended in cell lysis buffer (BioVision). Aliquots of cell lysates (100 μg) were incubated with 1 μM of fluorescent proteasome substrate (BioVision) for 30 min at 37 °C. The fluorescent intensity was read using a fluorimeter with an exciting wavelength at 355 nm and emission wavelength at […] and presented as relative proteasome activity.

[11] = tested on: intracellular Ca^2+; test: Fluo-4 intracellular Ca2+ assay; assay type: cell-based; conditions: the four cancer cell lines, Fluo-4, 40 min
Protocol: We used a Fluo-4 direct calcium assay kit from Invitrogen (catalog item F10471) to measure the intracellular calcium response to I-Trp in target cancer cell lines. Cancer cell lines were cultured in 96-well plates with media containing 10% FBS. After reaching confluence, cancer cells were treated with MCN-A-343 (positive control), BATPA (negative control), or I-Trp and incubated with Fluo-4 direct calcium reagent loading solution for 40 min. After incubation, the fluorescence signal was immediately measured using a fluorescence microplate reader at excitation and emission of 509 and 516 nm, respectively.

[12] = tested on: MDA-MB-231, MKN-45, HCT116, and Colo205 cells; test: PI-based flow cytometric sub-G0 apoptosis assessment; assay type: cell-based; conditions: 72 h, different concentrations, the four cancer cell lines
Protocol: as §1

[13] = tested on: MDA-MB-231 cells; test: as above; assay type: cell-based; conditions: MDA-MB-231 with CCT-β shRNA clones, 10 μM, 72 h
Protocol: as §1

[14] = tested on: caspases; test: Caspase activity assay (fluorescent substrates); assay type: cell-based; conditions: EC50 concentrations, 72 h, the four cancer cell lines
Protocol: The caspase activity assay was performed according to the manufacturer’s guidelines (BioVision). Briefly, cell lysates (200 μg) were diluted in 50 μl of cell lysis buffer (supplied by the kit). Equal volumes of the 2 × reaction buffer (supplied by the kit) containing 10 mM DTT were added to the cell lysates. Subsequently, 50 μM of fluorescent dye-conjugated caspase substrate was individually added to the designated caspase activity assay. After a 2-h incubation, free fluorescent dyes in the solution were read in a fluorimeter equipped with a 385-nm excitation filter and 510-nm emission filter.

[15] = tested on: CCT-β : β-tubulin complex; test: co-IP with CCT-β antibody, immunoblot for β-tubulin; assay type: cell-based; conditions: 5 or 10 μM, 6 h; MDA-MB-231, MKN-45, HCT116, Colo205 lysates
Protocol: With GADPH as a protein-loading control, we also confirmed that the input of β-tubulin and CCT-β in the experiments was equal with or without treatment. […] After 24–48 h of I-Trp treatment, cells underwent apoptosis to trigger proteasome activity for cellular protein degradation as reported previously.[14]
(a) Using CCT-β antibody to co-IP the complex, and then detecting the quantity of trapped β-tubulin with western blotting using β-tubulin antibody. […] The cancer cells were treated with I-Trp for the designated time periods. Cell lysates were examined using the proteasome activity assay. (c) The changed expression levels of ER stress protein markers upon I-Trp treatment
The cell lysates (100 μg) were boiled for 5 min in SDS sample buffer (62.5 mM Tris-HCl pH 6.7, 1.25% SDS, 12.5% glycerol, and 2.5% β-mercaptoethanol), and the proteins were separated via SDS-PAGE. For western blotting, proteins were transferred onto a PVDF membrane (Millipore, MA, USA) and incubated with different antibody agents. After incubation with horseradish peroxidase (HRP)-conjugated secondary antibody, immuno-reactive protein bands were visualized using the enhanced chemiluminescence (ECL) system (Amersham Bioscience, Tokyo, Japan).

[16] = tested on: β-tubulin; parameters: method as in PMID 19690144; conditions: cited from earlier work

SMILES	EC50 ([2]; 72 h)	EC50 ([4]; 72 h)	EC50 ([5]; 72 h)	EC50 [6]	EC50 [3]	other results
C[S+]([O-])c1ccc(-c2nc(-c3ccncc3)c(-c3ccc(F)cc3)[nH]2)cc1 (stereo not drawn) [SB203580]						reversal of I-Trp-induced apoptosis ([1]; 1–10 μM pretreatment 1 h, the cancer cell lines): reduced the percentage of I-Trp-induced apoptotic cells
COC(=O)C1Cc2c([nH]c3ccccc23)C(c2ccccc2)N1C(=O)CCl (stereo not drawn) [Compound 3]						EC50 ([2]; Homo sapiens, COLO 205, 72 h): 8.1 µM; EC50 ([3]; Homo sapiens, MCF-10A): > 20 µM; EC50 ([4]; Homo sapiens, HCT-116, 72 h): 3.3 µM; EC50 ([5]; Homo sapiens, MKN-45, 72 h): 4.7 µM; EC50 ([6]; Homo sapiens, MDA-MB-231): 2.7 µM; killing these cancer cells (in words) [6]: effectively killed cancer cells
Oc1c2ccccc2c2c3c(cccc13)N=N2 [SP600125]						reversal of I-Trp-induced apoptosis ([1]; MDA-MB-231 and HCT116 cells, 1–10 μM pretreatment 1 h): could not reverse I-Trp-induced apoptosis
COC(=O)C1Cc2c([nH]c3ccccc23)C(c2ccccc2)N1C(=O)CI (stereo not drawn) [Compound 4]						EC50 ([2]; Homo sapiens, COLO 205, 72 h): 0.99 µM; EC50 ([3]; Homo sapiens, MCF-10A): ~20 µM; toxicity relative to doxorubicin on MCF-10A ([3]; MCF-10A): significantly less (~fivefold) toxic compared to doxorubicin; EC50 ([4]; Homo sapiens, HCT-116, 72 h): 0.54 µM; EC50 ([5]; Homo sapiens, MKN-45, 72 h): 1.6 µM; EC50 ([6]; Homo sapiens, MDA-MB-231): 0.59 µM; potency relative to doxorubicin ([6]; cancer cell lines of Table 1): slightly less (~twofold) potent than doxorubicin
COc1cccc2c1C(=O)c1c(O)c3c(c(O)c1C2=O)C[C@@](O)(C(=O)CO)C[C@@H]3O[C@H]1C[C@H](N)[C@H](O)[C@H](C)O1 [Doxorubicin, reference compound]						EC50 ([2]; Homo sapiens, COLO 205, 72 h): 0.5 µM; EC50 ([3]; Homo sapiens, MCF-10A): 3.8 µM; EC50 ([4]; Homo sapiens, HCT-116, 72 h): 0.26 µM; EC50 ([5]; Homo sapiens, MKN-45, 72 h): 0.24 µM; EC50 ([6]; Homo sapiens, MDA-MB-231): 0.46 µM
COC(=O)C(Cc1c[nH]c2ccccc12)NC(=O)C[N+](=O)[O-] (stereo not drawn) [Compound 1e]	15.9 µM	20.9 µM	14.1 µM	> 20 µM	> 20 µM	
N#CC(=C(/N)Sc1ccccc1N)/C(C#N)=C(/N)Sc1ccccc1N [Compound U0126]						reversal of I-Trp-induced apoptosis ([1]; MKN-45 cells, 0.5–10 μM pretreatment 1 h): could not reverse the I-Trp-induced apoptosis
COC(=O)[C@@H](Cc1c[nH]c2ccccc12)NC(=O)CI [I-Trp]	0.9 µM	0.88 µM	1.27 µM	2.5 µM	> 20 µM	effect on polymerization/depolymerization of microtubules [7]: does not affect the polymerization/depolymerization of microtubules; colony formation [8]: formed more diffuse or smaller colonies; mRNA levels of CCT-β and β-tubulin [9]: not changed; proteasome activities ([10]; MDA-MB-231 cells): less apparent; proteasome activities ([10]; MKN-45, HCT116, and Colo205 cells): elevated in an I-Trp dose-dependent manner; toxicity to MCF-10A (in words) ([3]; MCF-10A): non-toxic; intracellular Ca^2+ mobilization [11]: induced the intracellular Ca^2+ mobilization in a dose-dependent manner; sub-G0 cell accumulation [12]: dose-dependent sub-G0 cell accumulation; cell death (sub-G0) after knockdown of CCT-β [13]: significantly (P<0.001) reduced cell death from I-Trp exposure; activities of caspases-2 to -9 [14]: enhanced; disruption of the CCT-β : β-tubulin complex (trapped β-tubulin) [15]: disrupted the CCT-β : β-tubulin complex; covalent modification of β-tubulin [16]: alkylate Cys^354 of β-tubulin
COC(=O)C(Cc1c[nH]c2ccccc12)NC(=O)CC(F)(F)F (stereo not drawn) [Compound 1f]	> 20 µM	> 20 µM	> 20 µM	> 20 µM	> 20 µM	

More lines, main results first:

EC50 ([2]; 72 h)	EC50 ([4]; 72 h)	EC50 ([5]; 72 h)	EC50 [6]	SMILES	EC50 [3]	other results
> 20 µM	> 20 µM	> 20 µM	> 20 µM	COC(=O)C(Cc1c[nH]c2ccccc12)NC(=O)CC#N (stereo not drawn) [Compound 1h]	> 20 µM	
> 20 µM	> 20 µM	> 20 µM	19.5 µM	COC(=O)C(Cc1c[nH]c2ccccc12)NC(=O)CCl (stereo not drawn) [Compound 1c]	> 20 µM	killing these cancer cells (in words) [6]: mostly inactive
> 20 µM	> 20 µM	> 20 µM	> 20 µM	COC(=O)C(Cc1c[nH]c2ccccc12)NC(=O)C(F)(F)F (stereo not drawn) [Compound 1g]	> 20 µM	
1.6 µM	1.1 µM	2.5 µM	3.75 µM	COC(=O)C(Cc1c[nH]c2ccccc12)NC(=O)CBr (stereo not drawn) [Compound 1b]	> 20 µM	killing these cancer cells (in words) [6]: almost equipotent as I-Trp (1a)
> 20 µM	> 20 µM	> 20 µM	> 20 µM	COC(=O)C(Cc1c[nH]c2ccccc12)NC(=O)C(Cl)Cl (stereo not drawn) [Compound 1d]	> 20 µM	
